# From PMC12655172, “Borylated 5-Membered Ring Iminosugars: Synthesis and Biological Evaluation for Glycosidase Inhibition and Anticancer Properties for Application in Boron Neutron Capture Therapy (BNCT)—Part 2” (Pharmaceuticals, 2025)
# Experiments:
# [1] = tested on: HT29 (colorectal carcinoma); test: Cancer screening, MTT growth inhibition; format: cell-based; details: Homo sapiens; for inhibition at 25 µM: HT-29, 25 µM of drug, 72 h, read-out: DOSE SCREEN percentage (%) cell growth inhibition HT29 Colon; for GI50: HT-29, 72 h, read-out: DOSE RESPONSE GI50 HT29 Colon
# Description: (§1) For Table 4, all test agents were prepared as stock solutions ([…]) in dimethyl sulfoxide (DMSO) and stored at −20 °C. Cell lines used in the study included HT29 (colorectal carcinoma), A2780 (ovarian carcinoma), H460 (lung carcinoma), A431 (skin carcinoma), MiaPaCa-2 (pancreatic carcinoma), and SMA560 (spontaneous murine astrocytoma), together with MCF10A (non-tumour derived normal breast cell line). Cell line sources: the HT29, H460, and MiaPaCa-2, together with MCF10A were purchased from ATCC. The A2780 and A431 were purchased from the European Collection of Cell Culture (ECACC). All cell lines were incubated in a humidified atmosphere 5% CO2 at 37 °C. The cancer cell lines were maintained in Dulbecco’s modified Eagle’s medium (DMEM; Sigma, Truganina, Australia) supplemented with foetal bovine serum (10%), sodium pyruvate ([…]), penicillin (100 IUmL^−1), streptomycin (100 µg mL^−1), and L-glutamine ([…]).
# (§2) Growth inhibition was determined by plating cells in duplicate in medium (100 µL) at a density of 2500–4000 cells per well in 96-well plates. On day 0 (24 h after plating), when the cells are in logarithmic growth, medium (100 µL) with or without the test agent was added to each well. […] Each data point is the mean ± the standard error of the mean (SEM) calculated from three replicates which were performed on separate occasions and separate cell line passages.
# [2] = tested on: A2780 (ovarian carcinoma); test: Cancer screening, MTT growth inhibition; format: cell-based; details: Homo sapiens; for inhibition at 25 µM: A2780, 25 µM of drug, 72 h, read-out: DOSE SCREEN percentage (%) cell growth inhibition A2780 Ovarian; for GI50: A2780, 72 h, read-out: DOSE RESPONSE GI50 A2780 Ovarian
# Description: as §1, §2
# A431 (skin carcinoma) = test: Cancer screening, MTT growth inhibition; format: cell-based; details: Homo sapiens; for inhibition at 25 µM: A-431, 25 µM of drug, 72 h, read-out: DOSE SCREEN percentage (%) cell growth inhibition A431 Skin; for GI50: A-431, 72 h, read-out: DOSE RESPONSE GI50 A431 Skin
# Description: as §1, §2
# H460 (lung carcinoma) = test: Cancer screening, MTT growth inhibition; format: cell-based; details: Homo sapiens; for inhibition at 25 µM: NCI-H460, 25 µM of drug, 72 h, read-out: DOSE SCREEN percentage (%) cell growth inhibition H460 Lung; for GI50: NCI-H460, 72 h, read-out: DOSE RESPONSE GI50 H460 Lung
# Description: as §1, §2
# [3] = tested on: MIA-Pa-Ca2 (pancreatic carcinoma); test: Cancer screening, MTT growth inhibition; format: cell-based; details: Homo sapiens; for inhibition at 25 µM: MIA PaCa-2, 25 µM of drug, 72 h, read-out: DOSE SCREEN percentage (%) cell growth inhibition MIA-Pa-Ca2 Pancreatic; for GI50: MIA PaCa-2, 72 h, read-out: DOSE RESPONSE GI50 MIA-Pa-Ca2 Pancreatic
# Description: as §1, §2
# [4] = biological target: T1, β-D-glucosidase (bovine liver) (Bos taurus, UniProt F1MNT6); test: Glycosidase inhibition (Table 2 panel); format: biochemical
# T1 sequence (F1MNT6 1-469): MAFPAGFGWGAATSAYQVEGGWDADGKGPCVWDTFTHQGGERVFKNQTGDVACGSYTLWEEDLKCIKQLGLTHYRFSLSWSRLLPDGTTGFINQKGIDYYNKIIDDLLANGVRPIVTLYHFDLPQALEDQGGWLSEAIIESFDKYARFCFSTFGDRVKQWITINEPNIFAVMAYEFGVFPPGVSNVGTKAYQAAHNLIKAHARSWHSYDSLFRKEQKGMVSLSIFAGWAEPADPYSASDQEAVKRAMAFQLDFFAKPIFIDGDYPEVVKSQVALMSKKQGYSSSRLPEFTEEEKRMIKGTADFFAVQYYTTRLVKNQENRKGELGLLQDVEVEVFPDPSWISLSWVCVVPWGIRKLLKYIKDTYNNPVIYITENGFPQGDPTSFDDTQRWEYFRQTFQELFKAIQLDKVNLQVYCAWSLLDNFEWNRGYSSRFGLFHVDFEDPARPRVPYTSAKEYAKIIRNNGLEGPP
# From the text: (§3) The enzymes α-D-glucosidase (yeast), β-D-glucosidases (almond, bovine liver), α-D-galactosidase (coffee beans), β-D-galactosidase (bovine liver), α-D-mannosidase (Jack bean), β-D-mannosidase (snail), α-L-rhamnosidase (P. decumbens), α-L-fucosidase (bovine kidney), trehalase (porcine kidney), β-D-glucuronidases (E. coli, bovine liver), amyloglucosidase (A. niger), para-nitrophenyl glycosides, and various disaccharides were purchased from Sigma-Aldrich Co (St. Louis, MO, USA).
# (§4) Brush border membranes were prepared from the rat small intestine according to the method of Kessler et al., and were assayed at pH 6.8 for rat intestinal maltase using maltose. For rat intestinal maltase, porcine kidney trehalase, and A. niger amyloglucosidase activities, the reaction mixture contained maltose ([…]) and the appropriate amount of enzyme, and the incubations were performed for 10–30 min at 37 °C. The reaction was stopped by heating at 100 °C for 3 min. After centrifugation (600 g; 10 min), the resulting reaction mixture was added to the Glucose CII-test Wako (Wako Pure Chemical Ind., Osaka, Japan). The absorbance at 505 nm was measured to determine the amount of the released D-glucose. Other glycosidase activities were determined using an appropriate para-nitrophenyl glycoside as substrate at the optimum pH of each enzyme. The reaction mixture contained the substrate ([…]) and the appropriate amount of enzyme. The reaction was stopped by the addition of Na2CO3 ([…]). The released para-nitrophenol was measured spectrometrically at 400 nm. All reactions were run in […].
# β-D-glucosidase (almond) = test: Glycosidase inhibition (Table 2 panel); format: biochemical
# From the text: as §3, §4
# [5] = tested on: T2, α-D-mannosidase (Jack bean); test: Glycosidase inhibition (Table 2 panel); format: biochemical
# T2 construct: purchased Sigma-Aldrich; host or cells: Jack bean
# From the text: as §3, §4
# [6] = tested on: β-D-glucuronidase (bovine liver); test: Glycosidase inhibition (Table 2 panel); format: biochemical
# From the text: as §3, §4
# [7] = tested on: α-D-glucosidase (rat intestinal maltase); test: Glycosidase inhibition (Table 2 panel); format: biochemical
# From the text: as §3, §4
# [8] = tested on: T3, trehalase (porcine kidney); test: Glycosidase inhibition (Table 2 panel); format: biochemical
# T3 construct: purchased Sigma-Aldrich; host or cells: porcine kidney
# From the text: as §3, §4
# α-D-glucosidase (rice) = α-D-glucosidase (rice) (Oryza sativa subsp. japonica, UniProt Q653V7); test: Glycosidase inhibition (Table 2 panel); format: biochemical
# Chain of α-D-glucosidase (rice) (Q653V7 34-885): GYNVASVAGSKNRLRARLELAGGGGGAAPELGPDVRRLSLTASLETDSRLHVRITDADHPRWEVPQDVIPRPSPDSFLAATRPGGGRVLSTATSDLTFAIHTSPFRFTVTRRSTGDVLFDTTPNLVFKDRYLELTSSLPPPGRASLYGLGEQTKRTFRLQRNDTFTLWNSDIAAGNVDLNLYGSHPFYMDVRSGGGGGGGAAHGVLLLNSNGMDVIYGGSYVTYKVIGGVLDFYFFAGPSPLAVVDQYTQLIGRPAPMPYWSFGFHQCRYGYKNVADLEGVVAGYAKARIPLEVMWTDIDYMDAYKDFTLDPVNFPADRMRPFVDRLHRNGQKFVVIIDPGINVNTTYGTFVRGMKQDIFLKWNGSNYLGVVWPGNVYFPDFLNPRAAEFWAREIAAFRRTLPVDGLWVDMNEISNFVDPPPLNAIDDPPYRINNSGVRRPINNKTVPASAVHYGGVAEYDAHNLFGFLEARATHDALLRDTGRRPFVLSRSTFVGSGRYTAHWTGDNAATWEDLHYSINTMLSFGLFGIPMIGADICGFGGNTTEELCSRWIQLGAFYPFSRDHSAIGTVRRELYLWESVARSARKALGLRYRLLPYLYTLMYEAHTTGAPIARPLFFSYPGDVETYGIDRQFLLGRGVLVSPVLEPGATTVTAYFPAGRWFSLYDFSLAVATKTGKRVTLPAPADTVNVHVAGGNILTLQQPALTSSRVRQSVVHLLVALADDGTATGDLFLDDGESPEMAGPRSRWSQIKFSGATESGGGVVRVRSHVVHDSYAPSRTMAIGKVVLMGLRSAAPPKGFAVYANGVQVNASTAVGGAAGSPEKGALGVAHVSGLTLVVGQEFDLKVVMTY
# From the text: as §3, §4
# [9] = tested on: α-L-rhamnosidase (P. decumbens); test: Glycosidase inhibition (Table 2 panel); format: biochemical
# From the text: as §3, §4
# β-D-mannosidase (snail) = test: Glycosidase inhibition (Table 2 panel); format: biochemical
# From the text: as §3, §4
# [10] = tested on: T4, α-D-galactosidase (coffee beans); test: Glycosidase inhibition (Table 2 panel); format: biochemical
# T4 construct: purchased Sigma-Aldrich; host or cells: coffee beans
# From the text: as §3, §4
# [11] = listed as of the 1000 μM series
Compound,inhibition at 25 µM [1],GI50 [1],inhibition at 25 µM [2],GI50 [2],inhibition at 25 µM (A431 (skin carcinoma)),GI50 (A431 (skin carcinoma)),inhibition at 25 µM (H460 (lung carcinoma)),GI50 (H460 (lung carcinoma)),inhibition at 25 µM [3],GI50 [3],inhibition at 100 µM [4],inhibition % β-D-Glucosidase Almond (β-D-glucosidase (almond); at 100 μM),inhibition % α-D-Mannosidase Jack Bean ([5]; at 100 μM),inhibition % β-D-Glucuronidase Bovine Liver ([6]; at 100 μM),inhibition % α-D-Glucosidase Rat Intestinal Maltase ([7]; at 100 μM),inhibition % Trehalase Porcine Kidney ([8]; at 100 μM),inhibition at 100 µM (α-D-glucosidase (rice)),inhibition % α-L-Rhamnosidase P. decumbens ([9]; at 100 μM),inhibition % β-D-Mannosidase Snail (β-D-mannosidase (snail); at 100 μM),inhibition % α-D-Galactosidase Coffee Beans ([10]; at 100 μM),further results
"OC[C@H](O)[C@@H]1[C@H](O)[C@H](O)CN1Cc1cccc(B(O)O)c1 [meta 4, N-(3-Methylphenylboronic acid)-1,4-dideoxy-1,4-imino-L-gulitol]",< 0%,> 50 µM,18 ± 5%,> 50 µM,6 ± 1%,> 50 µM,7 ± 1%,> 50 µM,16 ± 5%,> 50 µM,0%,^cNI ^d(0.6%),^cNI ^d(0%),^cNI ^d(0%),^cNI ^d(22.8%),^cNI ^d(0.8%),8%,^cNI ^d(8.3%),^cNI ^d(0%),^cNI ^d(1.1%),"inhibition at 1000 µM [4]: 37.9%; inhibition % β-D-Glucosidase Almond (β-D-glucosidase (almond); at 1000 μM): ^aNI ^b(43%); inhibition % α-D-Mannosidase Jack Bean ([5]; at 1000 μM): ^aNI ^b(0%); inhibition % β-D-Glucuronidase Bovine Liver ([6]; at 1000 μM): ^aNI ^b(14.7%); IC50 [7, 11]: 588 µM; inhibition % Trehalase Porcine Kidney ([8]; at 1000 μM): ^aNI ^b(3.4%); IC50 (α-D-glucosidase (rice); [11]): 106 µM; inhibition % β-D-Mannosidase Snail (β-D-mannosidase (snail); at 1000 μM): ^aNI ^b(0%); inhibition % α-D-Galactosidase Coffee Beans ([10]; at 1000 μM): ^aNI ^b(3.7%)"
"CC1(C)O[C@H]2O[C@H]3[C@@H]([C@H]2O1)N(Cc1cccc(B(O)O)c1)C[C@H]3O [meta 5, N-(3-Methylphenylboronic acid)-3,6-dideoxy-3,6-imino-1,2-O-isopropylidene-α-D-glucofuranose]",< 0%,> 50 µM,32 ± 7%,> 50 µM,8 ± 8%,> 50 µM,10 ± 2%,> 50 µM,16 ± 1%,> 50 µM,23%,^cNI ^d(0%),^cNI ^d(6.3%),^cNI ^d(2.9%),^cNI ^d(0%),^cNI ^d(0%),0%,^cNI ^d(0.6%),^cNI ^d(2.3%),^cNI ^d(1.5%),–
CC1(C)O[C@H]2O[C@H]3[C@@H]([C@H]2O1)N(Cc1cccc(O)c1)C[C@H]3O [meta 6],4 ± 3%,> 50 µM,23 ± 6%,> 50 µM,4 ± 9%,> 50 µM,6 ± 3%,> 50 µM,12 ± 4%,> 50 µM,15.8%,^cNI ^d(6.3%),^cNI ^d(9.5%),^cNI ^d(1.6%),^cNI ^d(4.7%),^cNI ^d(0%),0%,^cNI ^d(6.5%),^cNI ^d(0.6%),^cNI ^d(0%),–
"CC1(C)O[C@H]2O[C@H]3[C@@H]([C@H]2O1)N(Cc1ccccc1B1OC(C)(C)C(C)(C)O1)C[C@H]3O [ortho 2, N-(2-Methylphenylboronic acid pinacol ester)-3,6-dideoxy-3,6-imino-1,2-O-isopropylidene-α-D-gulofuranose]",7%,> 50 µM,7 ± 2%,> 50 µM,10 ± 5%,> 50 µM,11 ± 4%,> 50 µM,9 ± 7%,> 50 µM,4.9%,^cNI ^d(35%),^cNI ^d(9.4%),^cNI ^d(2.2%),^cNI ^d(15.5%),^cNI ^d(5.6%),0%,^cNI ^d(1.5%),^cNI ^d(0%),^cNI ^d(0%),inhibition at 1000 µM [4]: 19.7%; inhibition % β-D-Glucosidase Almond (β-D-glucosidase (almond); at 1000 μM): ^aNI ^b(7.2%); inhibition % α-D-Mannosidase Jack Bean ([5]; at 1000 μM): ^aNI ^b(1.3%); inhibition % β-D-Glucuronidase Bovine Liver ([6]; at 1000 μM): ^aNI ^b(8.4%); inhibition % α-D-Glucosidase Rat Intestinal Maltase ([7]; at 1000 μM): ^aNI ^b(0%); inhibition % Trehalase Porcine Kidney ([8]; at 1000 μM): ^aNI ^b(1.8%); inhibition at 1000 µM (α-D-glucosidase (rice); at 1000 μM): 0%; inhibition % α-L-Rhamnosidase P. decumbens ([9]; at 1000 μM): ^aNI ^b(2.0%); inhibition % β-D-Mannosidase Snail (β-D-mannosidase (snail); at 1000 μM): ^aNI ^b(7.8%); inhibition % α-D-Galactosidase Coffee Beans ([10]; at 1000 μM): ^aNI ^b(2.9%)
